# Assay results reported in publication PMC8954547, “Nonpeptidic Z360-Analogs Tagged with Trivalent Radiometals as Anti-CCK2R Cancer Theranostic Agents: A Preclinical Study” (Pharmaceutics, 2022).
# Key:
# [1] = system: HEK293-CCK2i4svR cells; experiment: Radioligand uptake and internalization in HEK293-CCK2i4svR cells; format: cell-based, human
# In short: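 Cells incubated at 37 °C with 250 fmol radioligand in DMEM/1% FBS for 1 h ([111In]In-GAS1/2/3 also 15, 30 min, 2 h). Acid wash (glycine pH 2.8) gave membrane-bound and 1 N NaOH lysis gave internalized fractions, gamma-counted. Specific values (minus 1 µM DG2 nonspecific) as % of added activity per well.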
# [2] = system: SCID mice bearing twin HEK293-CCK2i4svR and wtHEK293 tumors; experiment: Biodistribution in SCID mice bearing twin HEK293-CCK2i4svR and wtHEK293 xenografts; format: in vivo
# In short: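 Uptake is expressed as %IA/g (mean ± SD, n = 4) from gamma counting of blood, organs and tumours collected at set times: 1, 4 and 24 h pi for ^67Ga, 4 and 24 h for ^111In (±gelofusine), 4–96 h for ^177Lu. Radioligands were given iv at 7–40 pmol to SCID mice bearing twin CCK2i4svR-transfected and wild-type HEK293 xenografts.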
smiles,measurement,setting,value
CC(C)(C)C(=O)CN1C(=O)[C@H](NC(=O)Nc2cccc(C(=O)NCCOCCOCCOCCNC(=O)[C@H](CCC(=O)O)NC(=O)CCC(C(=O)O)N3CCN(CC(=O)[O-])CCN(CC(=O)[O-])CCN(CC(=O)[O-])CC3)c2)CN(C2CCCCC2)c2ccccc21.[177Lu+3] (stereo in doubt) [[^177Lu]Lu-GAS3],Internalized to membrane-bound ratio,[1],2.8
same,Cell uptake (internalized + membrane-bound),"[1]; 1 h 37 °C, specific, of total added activity",7.65 ± 1.31%
same,Tumor to kidney ratio,[2]; 96 pi,13.8
same,"Biodistribution, Blood",[2]; 4 h pi,3.19 ± 0.44 %IA/g
same,"Biodistribution, CCK2i4svR(+) Tumor",[2]; 4 h pi,20.88 ± 1.20 %IA/g
same,"Biodistribution, CCK2i4svR(-) Tumor",[2]; 4 h pi,1.14 ± 0.50 %IA/g
same,"Biodistribution, Femur",[2]; 4 h pi,0.60 ± 0.07 %IA/g
same,"Biodistribution, Heart",[2]; 4 h pi,0.94 ± 0.21 %IA/g
same,"Biodistribution, Intestines",[2]; 4 h pi,1.85 ± 0.18 %IA/g
same,"Biodistribution, Kidneys",[2]; 4 h pi,8.86 ± 0.67 %IA/g
same,"Biodistribution, Liver",[2]; 4 h pi,2.73 ± 0.31 %IA/g
same,"Biodistribution, Lungs",[2]; 4 h pi,1.94 ± 0.21 %IA/g
same,"Biodistribution, Muscle",[2]; 4 h pi,0.31 ± 0.04 %IA/g
same,"Biodistribution, Pancreas",[2]; 4 h pi,1.00 ± 0.13 %IA/g
same,"Biodistribution, Spleen",[2]; 4 h pi,1.19 ± 0.12 %IA/g
same,"Biodistribution, Stomach",[2]; 4 h pi,0.64 ± 0.07 %IA/g
same,Tumor to kidney ratio,[2]; 4 h pi,2.4
same,"Biodistribution, Blood",[2]; 24 h pi,0.07 ± 0.01 %IA/g
same,"Biodistribution, CCK2i4svR(+) Tumor",[2]; 24 h pi,5.38 ± 0.77 %IA/g
same,"Biodistribution, CCK2i4svR(-) Tumor",[2]; 24 h pi,0.37 ± 0.12 %IA/g
same,"Biodistribution, Femur",[2]; 24 h pi,0.11 ± 0.02 %IA/g
same,"Biodistribution, Heart",[2]; 24 h pi,0.08 ± 0.02 %IA/g
same,"Biodistribution, Intestines",[2]; 24 h pi,0.17 ± 0.04 %IA/g
same,"Biodistribution, Kidneys",[2]; 24 h pi,1.42 ± 0.29 %IA/g
same,"Biodistribution, Liver",[2]; 24 h pi,0.51 ± 0.05 %IA/g
same,"Biodistribution, Lungs",[2]; 24 h pi,0.26 ± 0.02 %IA/g
same,"Biodistribution, Muscle",[2]; 24 h pi,0.03 ± 0.01 %IA/g
same,"Biodistribution, Pancreas",[2]; 24 h pi,0.07 ± 0.01 %IA/g
same,"Biodistribution, Spleen",[2]; 24 h pi,0.45 ± 0.05 %IA/g
same,"Biodistribution, Stomach",[2]; 24 h pi,0.11 ± 0.01 %IA/g
same,Tumor to kidney ratio,[2]; 24 h pi,3.8
same,"Biodistribution, Blood",[2]; 48 h pi,0.05 ± 0.01 %IA/g
same,"Biodistribution, CCK2i4svR(+) Tumor",[2]; 48 h pi,3.39 ± 0.23 %IA/g
same,"Biodistribution, CCK2i4svR(-) Tumor",[2]; 48 h pi,0.25 ± 0.14 %IA/g
same,"Biodistribution, Femur",[2]; 48 h pi,0.14 ± 0.04 %IA/g
same,"Biodistribution, Heart",[2]; 48 h pi,0.08 ± 0.01 %IA/g
same,"Biodistribution, Intestines",[2]; 48 h pi,0.07 ± 0.01 %IA/g
same,"Biodistribution, Kidneys",[2]; 48 h pi,0.47 ± 0.07 %IA/g
same,"Biodistribution, Liver",[2]; 48 h pi,0.35 ± 0.09 %IA/g
same,"Biodistribution, Lungs",[2]; 48 h pi,0.18 ± 0.03 %IA/g
same,"Biodistribution, Muscle",[2]; 48 h pi,0.04 ± 0.01 %IA/g
same,"Biodistribution, Pancreas",[2]; 48 h pi,0.08 ± 0.04 %IA/g
same,"Biodistribution, Spleen",[2]; 48 h pi,0.43 ± 0.10 %IA/g
same,"Biodistribution, Stomach",[2]; 48 h pi,0.08 ± 0.01 %IA/g
same,"Biodistribution, Blood",[2]; 72 h pi,0.04 ± 0.00 %IA/g
same,"Biodistribution, CCK2i4svR(+) Tumor",[2]; 72 h pi,1.99 ± 0.31 %IA/g
same,"Biodistribution, CCK2i4svR(-) Tumor",[2]; 72 h pi,0.13 ± 0.03 %IA/g
same,"Biodistribution, Femur",[2]; 72 h pi,0.06 ± 0.00 %IA/g
same,"Biodistribution, Heart",[2]; 72 h pi,0.04 ± 0.01 %IA/g
same,"Biodistribution, Intestines",[2]; 72 h pi,0.04 ± 0.01 %IA/g
same,"Biodistribution, Kidneys",[2]; 72 h pi,0.17 ± 0.04 %IA/g
same,"Biodistribution, Liver",[2]; 72 h pi,0.32 ± 0.02 %IA/g
same,"Biodistribution, Lungs",[2]; 72 h pi,0.15 ± 0.01 %IA/g
same,"Biodistribution, Muscle",[2]; 72 h pi,0.03 ± 0.01 %IA/g
same,"Biodistribution, Pancreas",[2]; 72 h pi,0.03 ± 0.01 %IA/g
same,"Biodistribution, Spleen",[2]; 72 h pi,0.44 ± 0.07 %IA/g
same,"Biodistribution, Stomach",[2]; 72 h pi,0.06 ± 0.02 %IA/g
same,"Biodistribution, Blood",[2]; 96 h pi,0.04 ± 0.00 %IA/g
same,"Biodistribution, CCK2i4svR(+) Tumor",[2]; 96 h pi,1.52 ± 0.43 %IA/g
same,"Biodistribution, CCK2i4svR(-) Tumor",[2]; 96 h pi,0.00 ± 0.04 %IA/g
same,"Biodistribution, Femur",[2]; 96 h pi,0.06 ± 0.00 %IA/g
same,"Biodistribution, Heart",[2]; 96 h pi,0.03 ± 0.01 %IA/g
same,"Biodistribution, Intestines",[2]; 96 h pi,0.03 ± 0.01 %IA/g
same,"Biodistribution, Kidneys",[2]; 96 h pi,0.11 ± 0.03 %IA/g
same,"Biodistribution, Liver",[2]; 96 h pi,0.25 ± 0.02 %IA/g
same,"Biodistribution, Lungs",[2]; 96 h pi,0.14 ± 0.01 %IA/g
same,"Biodistribution, Muscle",[2]; 96 h pi,0.01 ± 0.00 %IA/g
same,"Biodistribution, Pancreas",[2]; 96 h pi,0.02 ± 0.00 %IA/g
same,"Biodistribution, Spleen",[2]; 96 h pi,0.39 ± 0.02 %IA/g
same,"Biodistribution, Stomach",[2]; 96 h pi,0.04 ± 0.00 %IA/g
same,Background clearance / excretion route,"[2]; mouse, in vivo",rapid background clearance predominantly via the kidneys
